According to PMC8134075, “Structure of mouse cytosolic sulfotransferase SULT2A8 provides insight into sulfonation of 7α-hydroxyl bile acids” (Journal of Lipid Research, 2021):
Residue numbers refer to the chain shown, from its start. Blank lines part the entries; values can stand above or below the molecule they belong to.

Assays:
SULT2A8 [1] = target: T1, SULT2A8 (Mus musculus, UniProt Q8BGL3); assay: X-ray crystal structure; assay type: binding; conditions: pH 5.1
T1 construct: truncated, residues 4-282 (first three residues removed), N-terminal GST tag cleaved with PreScission protease (pGEX-6P-3); E. coli BL21(DE3), purified from inclusion bodies; homodimer in crystal
T1 sequence (Q8BGL3 4-282): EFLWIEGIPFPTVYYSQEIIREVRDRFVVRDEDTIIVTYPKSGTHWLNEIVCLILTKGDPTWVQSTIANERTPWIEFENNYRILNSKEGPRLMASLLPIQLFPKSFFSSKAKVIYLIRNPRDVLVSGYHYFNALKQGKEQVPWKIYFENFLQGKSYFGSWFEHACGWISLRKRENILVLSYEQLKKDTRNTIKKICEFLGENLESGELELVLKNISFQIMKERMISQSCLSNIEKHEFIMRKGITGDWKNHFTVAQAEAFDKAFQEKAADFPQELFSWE

SULT2A8 [2] = target: T1, SULT2A8; assay: thermal shift assay (Thermofluor); assay type: binding; conditions: 20 mM Hepes pH 8.0, 150 mM NaCl, 4 mM DTT, ligand 250 mM [sic]
SULT2A8 [3] = target: T1, SULT2A8; assay: HPLC of PAP generated; assay type: biochemical; conditions: 50 μM PAPS, 100 μM bile acid, 2.5 mM MgCl2, pH 5.5 or 7.5, 37°C
SULT2A8 [4] = target: T2, SULT2A8 (Mus musculus, UniProt Q8BGL3, N72W); assay: thermal shift assay (Thermofluor); assay type: binding; conditions: 20 mM Hepes pH 8.0, 150 mM NaCl, 4 mM DTT; ligand 250 mM [sic]
T2 construct: truncated, residues 4-282 (first three residues removed), N-terminal GST tag cleaved with PreScission protease (pGEX-6P-3); E. coli BL21(DE3), purified from inclusion bodies; homodimer in crystal
T2 sequence (Q8BGL3 4-282 N72W): T1 sequence (Q8BGL3 4-282) with N69W

SULT2A8 [5] = target: T3, SULT2A8 (Mus musculus, UniProt Q8BGL3, L99V); assay: thermal shift assay (Thermofluor); assay type: binding; conditions: 20 mM Hepes pH 8.0, 150 mM NaCl, 4 mM DTT; ligand 250 mM [sic]
T3 construct: truncated, residues 4-282 (first three residues removed), N-terminal GST tag cleaved with PreScission protease (pGEX-6P-3); E. coli BL21(DE3), purified from inclusion bodies; homodimer in crystal
T3 sequence (Q8BGL3 4-282 L99V): T1 sequence (Q8BGL3 4-282) with L96V

SULT2A8 [6] = target: T4, SULT2A8 (Mus musculus, UniProt Q8BGL3, L99T); assay: thermal shift assay (Thermofluor); assay type: binding; conditions: 20 mM Hepes pH 8.0, 150 mM NaCl, 4 mM DTT; ligand 250 mM [sic]
T4 construct: truncated, residues 4-282 (first three residues removed), N-terminal GST tag cleaved with PreScission protease (pGEX-6P-3); E. coli BL21(DE3), purified from inclusion bodies; homodimer in crystal
T4 sequence (Q8BGL3 4-282 L99T): T1 sequence (Q8BGL3 4-282) with L96T

SULT2A8 [7] = target: T5, SULT2A8 (Mus musculus, UniProt Q8BGL3, H48T); assay: thermal shift assay (Thermofluor); assay type: binding; conditions: 20 mM Hepes pH 8.0, 150 mM NaCl, 4 mM DTT; ligand 250 mM [sic]
T5 construct: truncated, residues 4-282 (first three residues removed), N-terminal GST tag cleaved with PreScission protease (pGEX-6P-3); E. coli BL21(DE3), purified from inclusion bodies; homodimer in crystal
T5 sequence (Q8BGL3 4-282 H48T): T1 sequence (Q8BGL3 4-282) with H45T

[8] = target: the molecule itself; assay: crystal structure; SULT2A8 (4-282) cocrystallised with PAP and CA, pH 5.1, 16°C; space group P4(2), two copies per asymmetric unit; dimerization read from analysis of the crystal packing

Molecule: C[C@H](CCC(=O)O)[C@H]1CC[C@H]2[C@@H]3[C@H](O)C[C@@H]4C[C@H](O)CC[C@]4(C)[C@H]3C[C@H](O)[C@]12C [CA]
- X-ray crystal structure, 2.5 A (SULT2A8 [1]; co-crystal with PAP, substrate pocket): SULT2A8 was cocrystallized with PAP and its native substrate CA

Molecule: C[C@H](CCC(=O)O)[C@H]1CC[C@H]2[C@@H]3[C@H](O)C[C@@H]4C[C@H](O)CC[C@]4(C)[C@H]3CC[C@]12C [Na CDC]
- Tm (SULT2A8 [2]): Na CDC, or sodium taurochenodeoxycholate) were added

Molecule: C[C@H](CCC(=O)O)[C@H]1CC[C@H]2[C@@H]3[C@H](O)C[C@@H]4C[C@H](O)CC[C@]4(C)[C@H]3C[C@H](O)[C@]12C [Na C]
- Tm (SULT2A8 [2]; with PAP): Tm values were further increased when both PAP and native substrates (Na C, Na T-C

Molecule: C[C@H](CCC(=O)NCCS(=O)(=O)O)[C@H]1CC[C@H]2[C@@H]3[C@H](O)C[C@@H]4C[C@H](O)CC[C@]4(C)[C@H]3CC[C@]12C [Na T-CDC]
- Tm (SULT2A8 [2]): Na CDC, or sodium taurochenodeoxycholate) were added

Molecule: Nc1ncnc2c1ncn2[C@@H]1O[C@H](COP(=O)(O)OS(=O)(=O)O)[C@@H](OP(=O)(O)O)[C@H]1O [PAPS]
- HPLC of PAP generated (SULT2A8 [3]): quantification of PAP generated from the sulfonation of substrates

- Tm (SULT2A8 [2]): from 54 to 61 °C
Molecule: Nc1ncnc2c1ncn2[C@@H]1O[C@H](COP(=O)(O)O)[C@@H](OP(=O)(O)O)[C@H]1O [PAP]
- X-ray crystal structure, 2.5 A (SULT2A8 [1]; co-crystal with cholic acid, PAPS binding pocket, cofactor product/analogue): SULT2A8 protein was cocrystallized with PAP and CA
- Tm (SULT2A8 [4]): the Tm value of N72W was increased when PAP was added
- Tm (SULT2A8 [5]): Tm values of these mutants were significantly increased when PAP was included
- Tm (SULT2A8 [6]): Tm values of these mutants were significantly increased when PAP was included
- Tm (SULT2A8 [7]): Tm values of these mutants were significantly increased when PAP was included

B1: mouse cytosolic sulfotransferase SULT2A8 (residues 4-282) (enzyme, UniProt Q8BGL3 4-282, looked up)
chain: T1 sequence (Q8BGL3 4-282)
notes: Sulfotransferase 2A8 (SULT2A8), mouse, residues 4-282 (first three N-terminal residues removed), cloned in pGEX-6P-3 from pRSET-SULT2A8; Crystallised with the small molecules PAP and cholic acid; two copies per asymmetric unit; also called mSULT2A8; SULT2A8 WT; source: E. coli BL21(DE3), purified from inclusion bodies (Glutathione Sepharose 4B, PreScission cleavage, Superdex 75); not shown: GST, …
- binding result [8]: binds
